Entries after “also recorded” stand apart in the source; their conditions may differ.
Tests used:
ROCK1 = ROCK1 (Homo sapiens, UniProt Q13464); assay: SelectScreen additional single point analysis; conditions: 10 μM
Aurora A = molecular target: T1, Aurora A (Homo sapiens, UniProt O14965); assay: SelectScreen in vitro kinase profiling, single point
T1 sequence (O14965 1-403): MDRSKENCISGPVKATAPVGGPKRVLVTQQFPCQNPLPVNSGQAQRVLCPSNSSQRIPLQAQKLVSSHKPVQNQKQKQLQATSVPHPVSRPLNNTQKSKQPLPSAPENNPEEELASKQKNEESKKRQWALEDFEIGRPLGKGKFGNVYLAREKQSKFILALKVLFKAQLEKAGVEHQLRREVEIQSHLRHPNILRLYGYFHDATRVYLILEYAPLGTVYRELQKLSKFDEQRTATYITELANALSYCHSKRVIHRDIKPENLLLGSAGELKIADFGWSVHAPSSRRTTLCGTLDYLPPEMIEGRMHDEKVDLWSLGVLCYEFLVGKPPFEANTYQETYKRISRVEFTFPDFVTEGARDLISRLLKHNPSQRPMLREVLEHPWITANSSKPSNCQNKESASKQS

[1] = tested on: single transformed colony derived GEF16 cells co-cultured with non-transformed vector cells; assay: Co-culture of single colony derived GEF16 cells with non-transformed vector cells; type: cell-based, mouse; conditions: 10 μM, 10 days
Protocol: FIG. 5 illustrates that the growth suppressive effects of YA1 on single transformed colony derived GEF16 NIH3T3 cells and polyclonal Ras transformed NIH3T3 cells are more pronounced when these are co-cultured with non-transformed cells. In FIG. 5A single transformed colonies were picked from 10 day cultures of GEF16 polyclonal NIH3T3 cells and expanded. These cells were then seeded at 2.0×10^5 cells per 30 mm dish and treated with 10 μM of YA1 or DMSO control either immediately or following 10 days in culture. Duplicate wells were harvested for flow cytometry. In FIG. 5B a total of 2×10^5 cells per well were plated consisting of increasing numbers of non-transformed vector cells co-cultured with decreasing numbers of single transformed colony derived GEF16 cells. These were treated with 10 μM of either YA1 or DMSO for 10 days. In producing the results shown in FIG. 5C the same co-culture experiment described in connection with FIG. 5B was carried out substituting polyclonal Ras transformed NIH3T3 cells for GEF16 transformed cells.
Non-transformed vector cells mixed with decreasing numbers of cells expanded from single GEF16 transformed colonies were treated with the compound of the invention YA1, or with DMSO, and incubated for 10 days.

HGK (MAP4K4) = HGK (MAP4K4) (Homo sapiens, UniProt O95819); assay: SelectScreen in vitro kinase profiling, single point
[2] = tested on: GEF16 transformed donor cells and non-transformed NIH3T3-vector recipient cells; assay: Flow cytometric LY/PKH67 assay of gap junction intercellular communication (GJIC); type: cell-based, mouse; conditions: 10 μM, p<0.05, FIG. 6B
Protocol: A novel flow cytometric assay was developed to measure the extent of gap junction intercellular communication (GJIC) using two differentially stained cell populations. Non-transformed recipient NIH3T3-vector cells were stained with PKH67 (Excitation 490, Emission 502, Sigma-Aldrich, Poole, UK) and GEF16 transformed donor cells were stained with Lucifer yellow (LY) (Excitation 427 nm, Emission 517 nm, Invitrogen Ltd., Paisley, UK) as follows.
A 1 ml suspension of 1×10^7 recipient cells in serum-free DMEM was mixed with an equal volume of 4 μM PKH67 solution and incubated for 5 min at room temperature. The reaction was terminated by adding 2 ml serum and incubating for 1 min. Cells were then washed three times with culture medium, and seeded at 1.5×10^6 cells/T-25 flask. […]
LY labelled donor cells were then harvested and 1×10^5 were added to the T25 flask containing the PKH67 labelled recipient cells plus 10 μM YA1 or DMSO control. After incubating for various time intervals, the co-cultured donor and recipient cells were collected and analysed using a BD FACS Aria™ (BD Biosciences, Oxford, UK). A 405 nm laser was used for LY excitation and emission was measured using a 515 nm to 545 nm band pass filter. GJIC between co-cultured donor and recipient cells was quantified as the percentage of LY and PKH67 double labelled cells.

ROCK = assay: SelectScreen 40 kinase panel; type: biochemical, human; conditions: 10 μM, Km ATP
Description: The SelectScreen™ kinase inhibitor assay service was used (Invitrogen Ltd., Paisley, UK) to investigate the ability of the compounds of the invention to inhibit a large number of different kinases. This commercially provided service allows assessment of the ability of a compound (or compounds) of interest to inhibit a broad panel of human kinases. Further details regarding this service are available on the Invitrogen website at:
In the present study YA1 (a compound in accordance with formula (V)) was investigated for its ability to inhibit the activity of the 40 kinases shown in panel B of FIG. 2. The compounds of the invention were diluted in DMSO at a concentration of 10 mM and single-point kinase inhibitory activities were measured at 10 μM and Km ATP concentration.

[3] = tested on: GEF16 transformed NIH3T3 cells; assay: Flow cytometry of DNA content (cell cycle, sub G1); type: cell-based, mouse
Protocol: NIH3T3 cells with or without drug treatments (with Y27632 or the compounds of the invention) were harvested at various time points and cell counts carried out to confirm that 1×10^6 cells were present for each cytometric analysis. Cells were washed with PBS, fixed with 70% ice-cold ethanol, pelleted and DNA stained by incubating the cells with propidium iodide ([…]) (Sigma-Aldrich, Poole, UK) at 4° C. for 45 min. Cells were then washed twice with ice-cold PBS and resuspended in 400 μl of PBS. The DNA content during different phases of the cell cycle was then determined by flow cytometry (BD Biosciences, Oxford, UK). Each profile shown was representative of three separate experiments.

[4] = tested on: polyclonal GEF16 transfected NIH3T3 cells; assay: Transformed colony forming assay (Toluidine blue)
Protocol: Following this incubation period the compound was then removed from the culture media and cells maintained in normal growth media for a further 10 days before the photographs shown were taken.
In FIG. 4A polyclonal GEF16 transfected cells were seeded at 2.0×10^5 cells per 30 mm dish and incubated over night. […] After a further 10 days culture in the absence of inhibitors the cells were stained with Toluidine blue and photographed to produce the images shown. […] These were incubated for 3 or 6 days then stained with Toluidine blue before being photographed.
Medium (containing the compound of interest—either Y27632 or the selected compounds of the invention—or DMSO control) was changed every 2 days. Formation of foci was analysed by Toluidine blue (Sigma-Aldrich, Poole, UK) staining after 10 days growth post confluence. […] Each assay was carried out in triplicate and the results shown are representative of at least three separate experiments.

[5] = additional single point analysis, 10 μM

Sequence of HGK (MAP4K4) (O95819 whole entry): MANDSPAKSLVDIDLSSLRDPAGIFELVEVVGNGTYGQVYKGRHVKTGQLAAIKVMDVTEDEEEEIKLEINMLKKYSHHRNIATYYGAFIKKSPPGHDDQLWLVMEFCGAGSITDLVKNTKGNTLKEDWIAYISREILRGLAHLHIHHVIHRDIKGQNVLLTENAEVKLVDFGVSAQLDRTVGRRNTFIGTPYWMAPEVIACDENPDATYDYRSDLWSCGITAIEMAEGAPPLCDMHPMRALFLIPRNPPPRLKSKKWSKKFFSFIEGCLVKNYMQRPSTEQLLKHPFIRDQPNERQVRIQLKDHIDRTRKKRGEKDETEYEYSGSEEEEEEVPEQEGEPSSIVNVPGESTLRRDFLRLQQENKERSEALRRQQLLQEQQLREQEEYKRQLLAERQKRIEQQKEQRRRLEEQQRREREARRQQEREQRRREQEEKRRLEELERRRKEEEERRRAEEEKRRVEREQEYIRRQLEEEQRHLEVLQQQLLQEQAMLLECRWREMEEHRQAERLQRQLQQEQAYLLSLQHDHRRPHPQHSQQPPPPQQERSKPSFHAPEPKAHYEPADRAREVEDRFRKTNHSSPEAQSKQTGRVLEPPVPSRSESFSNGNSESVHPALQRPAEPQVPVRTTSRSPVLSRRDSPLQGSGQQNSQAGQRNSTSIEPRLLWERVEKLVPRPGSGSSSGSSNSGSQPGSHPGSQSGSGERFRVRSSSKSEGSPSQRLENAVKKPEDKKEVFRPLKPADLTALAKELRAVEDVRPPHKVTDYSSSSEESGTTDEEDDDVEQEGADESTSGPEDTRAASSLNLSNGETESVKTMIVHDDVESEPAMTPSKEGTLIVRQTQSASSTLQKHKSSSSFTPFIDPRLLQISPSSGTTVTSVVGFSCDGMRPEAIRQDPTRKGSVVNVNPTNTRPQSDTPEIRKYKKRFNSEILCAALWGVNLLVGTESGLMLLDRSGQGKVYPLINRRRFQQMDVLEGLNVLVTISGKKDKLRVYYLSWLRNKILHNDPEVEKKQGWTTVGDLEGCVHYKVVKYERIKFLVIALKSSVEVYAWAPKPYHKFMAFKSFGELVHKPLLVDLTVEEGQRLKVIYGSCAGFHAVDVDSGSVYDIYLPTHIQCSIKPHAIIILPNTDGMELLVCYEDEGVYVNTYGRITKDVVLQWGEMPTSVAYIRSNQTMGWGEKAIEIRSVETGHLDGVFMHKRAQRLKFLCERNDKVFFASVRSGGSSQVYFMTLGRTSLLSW
Sequence of ROCK1 (Q13464 whole entry): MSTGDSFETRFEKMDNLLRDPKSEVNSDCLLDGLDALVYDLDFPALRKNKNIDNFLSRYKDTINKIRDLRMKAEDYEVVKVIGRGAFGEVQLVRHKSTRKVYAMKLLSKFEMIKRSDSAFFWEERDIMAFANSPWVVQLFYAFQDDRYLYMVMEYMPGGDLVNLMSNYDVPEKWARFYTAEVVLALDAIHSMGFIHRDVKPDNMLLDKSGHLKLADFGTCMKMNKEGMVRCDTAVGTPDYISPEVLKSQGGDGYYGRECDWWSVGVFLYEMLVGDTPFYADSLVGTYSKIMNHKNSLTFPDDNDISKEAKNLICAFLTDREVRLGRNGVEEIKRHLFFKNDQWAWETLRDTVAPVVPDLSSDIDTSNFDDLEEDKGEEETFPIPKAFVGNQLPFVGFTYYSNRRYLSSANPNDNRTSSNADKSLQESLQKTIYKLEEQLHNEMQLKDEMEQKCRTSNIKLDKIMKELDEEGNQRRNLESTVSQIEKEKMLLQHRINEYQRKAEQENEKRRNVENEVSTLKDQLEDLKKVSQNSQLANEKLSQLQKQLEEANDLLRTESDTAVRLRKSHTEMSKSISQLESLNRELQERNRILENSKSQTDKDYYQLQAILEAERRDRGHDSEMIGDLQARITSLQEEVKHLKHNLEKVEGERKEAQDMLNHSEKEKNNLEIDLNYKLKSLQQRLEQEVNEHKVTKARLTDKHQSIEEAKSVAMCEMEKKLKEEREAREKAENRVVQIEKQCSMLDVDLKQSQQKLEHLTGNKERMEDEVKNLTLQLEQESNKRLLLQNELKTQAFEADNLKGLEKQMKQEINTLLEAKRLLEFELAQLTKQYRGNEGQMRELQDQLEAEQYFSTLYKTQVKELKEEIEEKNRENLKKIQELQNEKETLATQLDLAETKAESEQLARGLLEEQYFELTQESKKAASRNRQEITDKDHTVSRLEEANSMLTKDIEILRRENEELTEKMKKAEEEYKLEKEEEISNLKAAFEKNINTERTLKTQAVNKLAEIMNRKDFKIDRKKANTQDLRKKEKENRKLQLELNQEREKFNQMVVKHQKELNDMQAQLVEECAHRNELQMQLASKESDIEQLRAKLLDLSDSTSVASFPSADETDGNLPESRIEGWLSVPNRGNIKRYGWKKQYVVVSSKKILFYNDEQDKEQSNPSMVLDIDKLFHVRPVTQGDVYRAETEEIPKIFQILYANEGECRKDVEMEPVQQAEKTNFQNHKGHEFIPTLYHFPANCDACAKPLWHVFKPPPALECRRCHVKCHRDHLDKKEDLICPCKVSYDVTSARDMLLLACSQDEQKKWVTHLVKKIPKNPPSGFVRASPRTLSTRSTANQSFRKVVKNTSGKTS

activity against ROCK1 (ROCK1): less activity against ROCKs than YA2
inhibition at 10 µM (Aurora A; read-out: inhibitory activity against Aurora A): 44%
inhibition at 10 µM (HGK (MAP4K4); read-out: inhibitory activity against HGK (MAP4K4)): 63%
ROCK inhibitory activity (ROCK): ~40%
SMILES: CC(C)(C)OC(=O)NCc1ccc(C(=O)Nc2ccncc2)cc1 [YA1, 4-(Pyridin-4-ylcarbamoyl)benzylcarbamic acid tert-butyl ester]
activity against Aurora A (Aurora A; [5]): significant activity against p38, HGK and Aurora A
final saturation density / growth of transformed cells in co-culture with non-transformed cells [1]: marked reduction in the final saturation density of the cultures; also recorded: more effective at suppressing the growth of transformed cells when these are in contact with non-transformed cells; also recorded: clearly restored when these are co-cultured with non-transformed NIH3T3 cells
activity against HGK (HGK (MAP4K4); [5]): significant activity against p38, HGK and Aurora A
number of double LY/PKH67 labelled cells compared to DMSO control [2]: approximately 3 times
cell cycle / apoptotic sub G1 population ([3]; polyclonal GEF16 cells, 10 μM, FIG. 3C): no evidence of alterations in cell cycle or the accumulation of an apoptotic sub G1 population
cell cycle / apoptotic sub G1 population ([3]; single colony derived GEF16 cells, treated pre or post confluence): no effect on the cell cycle and no apoptotic sub G1 population is seen
number of transformed foci after transient exposure and withdrawal ([4]; 10 μM for 2, 4, 6, 8, 10 days, then 10 day chase in normal media): progressive decrease in the number of transformed foci associated with increased time of exposure
transformed focus formation after treatment, re-seeding and chase ([4]; 10 μM for 2-10 days, re-seeded at 2×10^5, 10 day chase without inhibitor): able to suppress transformed focus formation
formation of GEF16 transformed colonies ([4]; 10 μM, 10 days, post confluent cultures): able to block transformed GEF16 colony formation to an extent comparable to the inhibition achieved using Y27632; also recorded: greatest ability to inhibit GEF16 transformed colonies
effect on pre-formed transformed colonies ([4]; colonies formed for 10 days, then 10 μM or 20 μM for 3 and 6 days): marked reduction in their numbers

Source: patent US20130046098A1, “KINASE INHIBITORS” (THE UNIVERSITY OF MANCHESTER, priority 2009, published 2013)
